Test results as given in BindingDB's records for patent US20240425453 (Neophore, 2024).

Molecular target: T1, Mismatch repair endonuclease PMS2 (UniProt P54278)
T1 sequence (P54278 whole entry): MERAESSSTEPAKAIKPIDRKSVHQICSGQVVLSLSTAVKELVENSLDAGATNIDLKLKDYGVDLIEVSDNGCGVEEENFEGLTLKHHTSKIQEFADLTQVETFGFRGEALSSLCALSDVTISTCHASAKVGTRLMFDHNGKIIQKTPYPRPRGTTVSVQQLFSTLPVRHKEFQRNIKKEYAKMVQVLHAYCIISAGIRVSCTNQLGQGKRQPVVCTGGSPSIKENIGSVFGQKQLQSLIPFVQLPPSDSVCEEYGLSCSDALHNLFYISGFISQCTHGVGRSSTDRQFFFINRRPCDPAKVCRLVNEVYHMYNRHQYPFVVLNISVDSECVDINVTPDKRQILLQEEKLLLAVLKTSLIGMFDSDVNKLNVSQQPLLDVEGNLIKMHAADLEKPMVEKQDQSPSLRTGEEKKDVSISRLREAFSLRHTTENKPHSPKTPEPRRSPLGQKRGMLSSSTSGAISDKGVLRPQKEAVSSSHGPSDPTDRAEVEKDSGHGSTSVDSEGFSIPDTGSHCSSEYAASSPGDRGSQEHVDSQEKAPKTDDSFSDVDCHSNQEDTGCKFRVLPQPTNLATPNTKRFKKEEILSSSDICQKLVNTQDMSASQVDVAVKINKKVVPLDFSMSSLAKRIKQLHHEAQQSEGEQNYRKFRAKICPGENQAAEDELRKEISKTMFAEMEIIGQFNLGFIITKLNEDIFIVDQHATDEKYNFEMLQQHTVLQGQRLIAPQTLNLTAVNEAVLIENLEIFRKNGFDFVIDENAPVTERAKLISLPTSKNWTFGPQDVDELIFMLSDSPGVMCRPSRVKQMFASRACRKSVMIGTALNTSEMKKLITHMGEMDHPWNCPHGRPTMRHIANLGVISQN
Assay: Fluorescence Polarization Assay for PMS2

C=C(CN(C)C)C(=O)Nc1cccc2c1CN(C(=O)c1c(O)cc(O)c(C)c1OC)C2 [US20240425453, Example 36]
IC50: > 1000 nM
